Our source for the melting point values is a melting point compilation (Tetko et al.; mined from patent text by program, amines drawn as free bases though some values may be those of a salt).

On to `CSc1ccc(-c2nn(Cc3cccnc3)c(=S)cc2-c2ccc(Cl)cc2)cc1`, for which the melting point (in general, the temperature of the solid-liquid transition) lay in the range of 130 to 131 °C. Consider `O=c1c2ccccc2[nH]c2ccc(O)c(Cl)c12`, for which the melting point was 184 to 191 °C.

`COC(=O)c1cccc2c1N(CCN(C(C)C)C(C)C)C(=O)/C2=N\NC(N)=O` had a melting point of 192 to 195 °C.

Molecule `CC(=O)NCCCC(=O)c1ccc(Cl)cc1CCC(=O)OCC(N)=O` gave a melting point of 114 to 116 °C. To `Cc1nc(-c2c(F)cccc2Cl)nn1-c1ccc(CO)cc1` belongs 120 to 122 °C; to `CCOP(=O)(OCC)C(CCc1cc(C)nc2c(C#N)c(-c3ccccc3)nn12)P(=O)(OCC)OCC`, 107 °C; to `CCCC1(CCC)c2cc(-c3nc4cc(C)ccc4o3)ccc2-c2cc(O)c(-c3nc4cc(C)ccc4o3)cc21`, 291 to 293 °C. In turn, `CCOC(=O)CNC(=O)N1CCc2cc(S(=O)(=O)N3CCN(c4cccc(Cl)c4)CC3)ccc21` came in with a melting point of 150 °C.

With `COc1cc2cc(-c3cccnc3)cnc2cc1OC`, the melting point fell in the range of 131 to 132 °C.

`Clc1ccccc1-c1cnc2nncn2n1` showed a melting point of 145 to 148 °C.

Take `Cc1ccc(C(=O)NC(NC(=S)Nc2cccc([N+](=O)[O-])c2)c2ccccc2)cc1` (stereo unspecified): the melting point lay within 170 to 172 °C. Regarding `CC(C)(C)C(=O)Oc1cc(OS(=O)(=O)C(F)(F)F)cc2oc(-c3ccccc3)cc(=O)c12`, the melting point lay within 126 to 128 °C. With `COc1c(C)c2c(c(OS(C)(=O)=O)c1C/C=C(/Cl)CBr)C(=O)OC2`, the melting point was 146 to 148 °C. `COC(=O)c1cc([N+](=O)[O-])ccc1Nc1ccc(CCc2ccc(Cl)c(Cl)c2)cc1` gave a melting point of 107 to 108 °C. The molecule `CCOC(=O)c1cnc(NC(=O)C(Cc2ccc(F)cc2)c2ccc(S(C)(=O)=O)cc2)cn1` (stereo unspecified) returned a melting point of 99 to 100 °C. Consider `CCCCc1cc(=O)c2ccccc2[nH]1`, for which the melting point was 140 °C. With `CCCS(=O)(=O)NCc1ccc2ccn(C3CCN(CCc4ccc(F)cc4)CC3)c2c1`, the melting point was 80 to 81 °C. With `Cc1nc(C(F)(F)F)ccc1/C=C/C(=O)Nc1ccc2ncsc2c1`, the melting point came out at 196 °C.

The molecule `C/C=C/C[C@@H](C)[C@@H](O)[C@H](NC)C(=O)O` displayed a melting point of 228 to 233 °C. For the molecule `CCCCCCCCCCCCc1ccc(S(=O)(=O)Nc2nnc(CO)s2)cc1`, the melting point was 138 to 139 °C.

As to `O=C(Nc1ccc(-n2nc(C3CC3)cc2C2CC2)cc1)c1ccncc1F`, the melting point lay within 135 to 139 °C. `CCOc1cc(C(CC(=O)OC)N2C(=O)c3cccc(N)c3C2=O)ccc1OC` (stereo unspecified) displayed a melting point of 134 to 136 °C.

Turning to `NC(=O)CC1CN=C(c2cc3cccc(NS(=O)(=O)c4cccs4)c3[nH]2)S1` (stereo unspecified), the melting point was 130 to 131 °C. `COc1cc(Nc2nccc(NS(=O)(=O)c3ccccc3)n2)cc(OC)c1OC` registered a melting point of 164 °C.

With `COc1cc(C(C)=O)ccc1OCCCN1CCC(C(O)(c2ccc(F)cc2)c2ccc(F)cc2)CC1`, the melting point lay within 142 to 143 °C. As for `COc1ccc(-c2c(Cl)c(CN3C(=O)CCC3=O)nc3sc4c(c23)CCN(C(C)=O)C4)cc1`, the melting point was 266 to 267 °C.

`Fc1ccc(OCCCCCN2CCN(c3nccs3)CC2)cc1` yielded a melting point of 42 to 44 °C. Turning to `CCNC(=O)C1CC(n2cnc3c(NC(CC)Cc4ccc(Cl)s4)ccnc32)C(O)C1O` (stereo unspecified), the melting point was 77 to 85 °C. For the molecule `COc1ccc(C(=O)O)c(C)c1OC`, the melting point was in the range of 179 to 180 °C. `CCC(=NO)C1=CCCN(Cc2ccccc2)C1` displayed a melting point of 111 to 112 °C. To `Cc1ccnc(C(=O)c2[nH]c3cc(Cl)ccc3c2N)c1` belongs 195 to 196 °C; to `CCOc1ccccc1COc1ccc2c(c1)C=C(C(=O)O)CCS2(=O)=O`, 158 to 160 °C; to `CC(C)(C)OC(=O)N1CCCC1C(=O)Nc1cccc(-c2cc(-c3ccccc3O)nc(NC(=O)c3cccs3)c2C#N)c1` (stereo unspecified), 167 to 169 °C. Take `C/C=C/c1c(N)nc(-c2ccc(Cl)c(OC)c2F)nc1C(=O)OC`: the melting point was in the range of 133 to 135 °C. With `O=C(O)COc1cccc2c1CCC(CCn1cnc(-c3ccccc3)c1-c1ccccc1)C2` (stereo unspecified), the melting point was 197 °C.

Consider `Nc1ncnc2c1ncn2Cc1nc2cccc(Cl)c2c(=O)n1-c1ccccc1-c1ccccc1`, for which the melting point was 300 °C. Turning to `CN(CC(O)C(O)C(O)C(O)CO)C(=O)c1c(I)c(N)c(I)c(N)c1I` (stereo unspecified), the melting point turned out to be 110 °C. As for `Clc1nc2cc3ccccc3cc2nc1Cl`, the figure is 239 to 242 °C; as for `CCCCc1oc2ccccc2c1C(=O)NCc1ccc2c(-c3ccc(C)cc3)c(OCC#N)ccc2c1`, 114 to 117 °C. `S=c1[nH]c2ccccc2cc1-c1ccccc1`: the melting point was 242 to 244 °C. The molecule `O=CC1=Cc2cc(-c3ccccc3)ccc2OC1` yielded a melting point of 108 to 110 °C. `O=c1c2ccc(OCCN3CCCCC3)cc2oc2cc(OCCN3CCCCC3)ccc12` showed a melting point of 134 °C. The molecule `CC1(C)CC(=C(c2ccc(F)cc2)c2ccc(OCC#N)cc2)CC(C)(C)C1` displayed a melting point of 100 to 101 °C. In turn, `CCCCOc1cc(-n2c(=O)cc(C(F)(F)F)n(C)c2=O)c(F)cc1Br` had a melting point of 73 °C. In turn, `O=CN(O)C(CC1CCS(=O)(=O)CC1)CS(=O)(=O)c1ccc(Oc2ccc(OC(F)(F)F)cc2)cc1` (stereo unspecified) returned a melting point of 143 to 144 °C. As for `CCCOc1ccccc1-c1ccc(C(=O)OC)c(=O)[nH]1`, the figure is 126 to 128 °C.

The molecule `CC(C)CN1CCC(CCC(=O)c2cc(Cl)c(N)[nH]c2=O)CC1` showed a melting point of 175 °C. Regarding `COc1ccc(-c2nnn(-c3ccc(F)cc3Cl)c2N)cc1`, the melting point fell in the range of 136 to 141 °C.

For the molecule `COC(=O)c1cnc(C(=O)OC)c(SCc2cccc(C(F)(F)F)c2)c1`, the melting point is 102 to 106 °C.

For `Cc1cnc(CCCCCNc2ncc(Cc3ccc(C)nc3)c(=O)[nH]2)c(N)c1`, the melting point lay in the range of 161 to 163 °C. With `COC(=O)C(C(=O)OC)C(Cc1c([N+](=O)[O-])cccc1C(F)(F)F)c1ccc(OC)cc1` (stereo unspecified), the melting point was in the range of 117 to 119 °C.

`N#CCCCC(=NO)c1ccc(Cl)c(Cl)c1` came in with a melting point of 122 to 123 °C. For the molecule `C[C@H](CCC=O)[C@H]1CC[C@@]2(C)C3=C(CC[C@]12C)[C@@]1(C)CCC(=O)C(C)(C)C1CC3` (stereo partly specified), the melting point was in the range of 110 to 115 °C. As for `Cn1c(=O)c(-c2c(Cl)cccc2Cl)cc2cnc(Nc3ccccc3)nc21`, the figure is 247 to 249 °C. `N#Cc1cc(Cn2cncn2)ccc1-c1ccc(OS(N)(=O)=O)cc1` showed a melting point of 157 to 160 °C. Molecule `O=C(O)C(Cl)(Cl)CCCCCCCCCCc1ccccc1` returned a melting point of 157 to 159 °C. In the case of `COc1ccc2sc(=NN3C(=O)CSC3=S)sc2c1`, the melting point fell in the range of 254 to 255 °C.

Turning to `COc1ccccc1C(=O)OC(=C1C(=O)N(C(N)=O)c2cc(Cl)c(F)cc21)c1cccs1`, the melting point was in the range of 219 to 221 °C. For the molecule `Cc1cccc2c1CN(S(C)(=O)=O)CCS2`, the melting point lay within 128 to 130 °C.

`N#Cc1ccc(-c2cn(-c3ccc(C#N)cc3)c(SCc3ccccn3)n2)cc1` yielded a melting point of 164 to 170 °C. Molecule `O=C(O)c1cccc(-c2cccc(Oc3cccc(Cl)c3Cl)n2)c1` showed a melting point of 216 to 217 °C.
